Patent US6642247B2 (priority 1998, dated 2003)

Row | SMILES | melting point
1 | O=C(O)/C=C/C(=O)O.O=C1CCN(c2ccccc2)C12CCN([C@@H]1CC[C@H]3CCCc4cccc1c43)CC2 (racemic) | 144 °C
2 | COC1CCN(c2ccccc2)C12CCN([C@H]1CC[C@@H](C(C)C)CC1)CC2.Cl (mixture of isomers) | 214 to 215 °C
3 | Cl.OC1CCN(c2ccccc2)C12CCN(C1Cc3ccccc3C1)CC2 (racemic) | > 250 °C
4 | O=C(O)/C=C/C(=O)O.O=C1CCN(c2ccccc2)C12CCN(C1C[C@H]3CCCC[C@H]3C1)CC2 (stereo partly shown) | 225 °C
5 | CC(C)[C@H]1CC[C@@H](N2CCC3(CC2)ON=C(c2ccccc2)N3c2ccccc2)CC1.Cl | 131 °C
6 | Cl.O=C1CCN(c2ccccc2)C12CCN(C1Cc3ccccc3C1)CC2 | > 250 °C
7 | Cl.O=C1CCN(c2ccccc2)C12CCN([C@@H]1CC[C@@H]3CCCC[C@@H]3C1)CC2 (racemic) | 250 to 251 °C (dec.)
8 | Cc1cccc2c1CC(N1CCC3(CC1)C(=O)CCN3c1ccccc1)C2.Cl (racemic) | > 250 °C
9 | O=C(O)/C=C/C(=O)O.O=C1CCN(c2ccccc2)C12CCN(C1CCCCCCC1)CC2 | 197 °C
10 | CC(C)[C@H]1CC[C@H](N2CCC3(CC2)C(=O)CCN3c2ccccc2)CC1.Cl | 237 to 238 °C

Continued, values first:

Row | melting point | SMILES
11 | 170 °C (dec.) | COC1CCN(c2ccccc2)C12CCN(C1CCCCCCCCC1)CC2.Cl.Cl (racemic)
12 | > 250 °C | CC(C)[C@H]1CC[C@@H](N2CCC3(CC2)[C@@H](O)CCN3c2ccccc2)CC1.Cl
13 | > 250 °C | CC(C)[C@H]1CC[C@@H](N2CCC3(CC2)[C@H](O)CCN3c2ccccc2)CC1.Cl
14 | 173 °C (dec.) | Cl.Cl.OC1CCN(c2ccccc2)C12CCN(C1CCCCCCC1)CC2 (racemic)
15 | > 250 °C | CC(C)[C@H]1CC[C@H](N2CCC3(CC2)C(O)CCN3c2ccccc2)CC1.Cl (mixture of isomers)
16 | 170 °C (dec.) | Cl.Cl.OC1CCN(c2ccccc2)C12CCN(C1CCCCCCCCC1)CC2 (racemic)
17 | 185 °C | O=C(O)/C=C/C(=O)O.O=C1CCN(c2ccccc2)C12CCN(C1CCCCCCCC1)CC2
18 | 177 °C | O=C(O)/C=C/C(=O)O.O=C1CCN(c2ccccc2)C12CCN(C1CCCCCCCCC1)CC2
19 | > 250 °C | Cl.OC1CCN(c2ccccc2)C12CCN(C1CCC3CCCCC3C1)CC2 (stereo not shown)
20 | 196 °C (dec.) | COC1CCN(c2ccccc2)C12CCN(C1CCCCCCCC1)CC2.O=C(O)/C=C/C(=O)O (racemic)
21 | 170 °C (dec.) | Cl.Cl.OC1CCN(c2ccccc2)C12CCN(C1CCCCCCCC1)CC2 (racemic)
22 | > 250 °C | CC(C)[C@H]1CC[C@@H](N2CCC3(CC2)C(O)CCN3c2ccccc2)CC1.Cl (mixture of isomers)
